Reference: ChEMBL document CHEMBL2440112, “Structure-activity relationships of the aromatic site in novel anticonvulsant pyrrolo[1,2-a]pyrazine derivatives” (Bioorg Med Chem Lett, 2013)
Calls of active or inactive are those of the source. No cut-off for these calls is given here.

Tests used:
[1] = tested on: Mus musculus; test: Neurotoxicity in albino mouse minimal clonic seizure model assessed as minimal motor impairment at 100 mg/kg, ip after 4 hrs by rotorod test; assay type: toxicity, organism-based; design: dose 100 mg/kg, route intraperitoneal; settings: in vivo
[2] = tested on: Mus musculus; test: Neurotoxicity in albino mouse minimal clonic seizure model assessed as minimal motor impairment at 100 mg/kg, ip after 2 hrs by rotorod test; assay type: toxicity, organism-based; design: dose 100 mg/kg, route intraperitoneal; settings: in vivo
[3] = tested on: Mus musculus; test: Neurotoxicity in albino mouse minimal clonic seizure model assessed as minimal motor impairment at 100 mg/kg, ip after 1 hr by rotorod test; assay type: toxicity, organism-based; design: dose 100 mg/kg, route intraperitoneal; settings: in vivo
[4] = tested on: Mus musculus; test: Neurotoxicity in albino mouse minimal clonic seizure model assessed as minimal motor impairment at 100 mg/kg, ip after 0.5 hrs by rotorod test; assay type: toxicity, organism-based; design: dose 100 mg/kg, route intraperitoneal; settings: in vivo
[5] = tested on: Mus musculus; test: Neurotoxicity in albino mouse minimal clonic seizure model assessed as minimal motor impairment at 100 mg/kg, ip after 0.25 hrs by rotorod test; assay type: toxicity, organism-based; design: dose 100 mg/kg, route intraperitoneal; settings: in vivo
[6] = tested on: Mus musculus; test: Anticonvulsant activity in albino mouse assessed as protection against 6 Hz psychomotor seizure at 100 mg/kg, ip after 4 hrs by minimal clonic seizure test; assay type: functional, organism-based; design: dose 100 mg/kg
[7] = tested on: Mus musculus; test: Anticonvulsant activity in albino mouse assessed as protection against 6 Hz psychomotor seizure at 100 mg/kg, ip after 2 hrs by minimal clonic seizure test; assay type: functional, organism-based; design: dose 100 mg/kg
[8] = tested on: Mus musculus; test: Anticonvulsant activity in albino mouse assessed as protection against 6 Hz psychomotor seizure at 100 mg/kg, ip after 1 hr by minimal clonic seizure test; assay type: functional, organism-based; design: dose 100 mg/kg
[9] = tested on: Mus musculus; test: Anticonvulsant activity in albino mouse assessed as protection against 6 Hz psychomotor seizure at 100 mg/kg, ip after 0.5 hrs by minimal clonic seizure test; assay type: functional, organism-based; design: dose 100 mg/kg
[10] = tested on: Mus musculus; test: Anticonvulsant activity in albino mouse assessed as protection against 6 Hz psychomotor seizure at 100 mg/kg, ip after 0.25 hrs by minimal clonic seizure test; assay type: functional, organism-based; design: dose 100 mg/kg
[11] = tested on: Rattus norvegicus; test: Anticonvulsant activity in po dosed albino Sprague-Dawley rat assessed as protection against maximal electroshock-induced seizures after […] to 4 hrs; assay type: functional, organism-based
[12] = tested on: Mus musculus; test: Neurotoxicity in albino mouse assessed as minimal motor impairment at 100 mg/kg, ip after 4 hrs by rotorod test; assay type: toxicity, organism-based; design: dose 100 mg/kg, route intraperitoneal; settings: in vivo
[13] = tested on: Mus musculus; test: Neurotoxicity in albino mouse assessed as minimal motor impairment at 100 mg/kg, ip after 1 hr by rotorod test; assay type: toxicity, organism-based; design: dose 100 mg/kg, route intraperitoneal; settings: in vivo
[14] = tested on: Mus musculus; test: Neurotoxicity in albino mouse assessed as minimal motor impairment at 100 mg/kg, ip after 0.5 hrs by rotorod test; assay type: toxicity, organism-based; design: dose 100 mg/kg, route intraperitoneal; settings: in vivo
[15] = tested on: Mus musculus; test: Neurotoxicity in albino mouse assessed as loss of righting reflex at 100 mg/kg, ip after 0.25 hrs by rotorod test; assay type: toxicity, organism-based; design: dose 100 mg/kg, route intraperitoneal; settings: in vivo
[16] = tested on: Mus musculus; test: Anticonvulsant activity in albino mouse assessed as protection against subcutaneous metrazole-induced seizures at 100 mg/kg, ip after 4 hrs; assay type: functional, organism-based; design: dose 100 mg/kg
[17] = tested on: Mus musculus; test: Anticonvulsant activity in albino mouse assessed as protection against subcutaneous metrazole-induced seizures at 100 mg/kg, ip after 1 hr; assay type: functional, organism-based; design: dose 100 mg/kg
[18] = tested on: Mus musculus; test: Anticonvulsant activity in albino mouse assessed as protection against subcutaneous metrazole-induced seizures at 100 mg/kg, ip after 0.5 hrs; assay type: functional, organism-based; design: dose 100 mg/kg
[19] = tested on: Mus musculus; test: Toxicity in subcutaneous metrazole treated albino mouse assessed as myoclonic jerks at 100 mg/kg, ip after 0.25 hrs; assay type: organism-based; design: dose 100 mg/kg; settings: in vivo, sc
[20] = tested on: Mus musculus; test: Anticonvulsant activity in albino mouse assessed as protection against maximal electroshock-induced seizures at 100 mg/kg, ip after 4 hrs; assay type: functional, organism-based; design: dose 100 mg/kg
[21] = tested on: Mus musculus; test: Anticonvulsant activity in albino mouse assessed as protection against maximal electroshock-induced seizures at 100 mg/kg, ip after 1 hr; assay type: functional, organism-based; design: dose 100 mg/kg
[22] = tested on: Mus musculus; test: Anticonvulsant activity in albino mouse assessed as protection against maximal electroshock-induced seizures at 100 mg/kg, ip after 0.5 hrs; assay type: functional, organism-based; design: dose 100 mg/kg
[23] = tested on: Mus musculus; test: Anticonvulsant activity in albino mouse assessed as protection against maximal electroshock-induced seizures at 100 mg/kg, ip after 0.25 hrs; assay type: functional, organism-based; design: dose 100 mg/kg
[24] = tested on: Mus musculus; test: Anticonvulsant activity in ip dosed albino mouse assessed as protection against 6 Hz psychomotor seizure by minimal clonic seizure test; assay type: functional
[25] = Neurotoxicity in ip dosed albino mouse minimal clonic seizure model assessed as minimal motor impairment by rotorod test; assay type: toxicity, organism-based; settings: in vivo
[26] = species: Mus musculus; test: Protective index, ratio of TD50 for albino mouse minimal clonic seizure model to ED50 for albino mouse assessed as protection against 6 Hz psychomotor seizure; assay type: functional
[27] = tested on: Mus musculus; test: Anticonvulsant activity in ip dosed albino mouse assessed as time of peak effect for protection against 6 Hz psychomotor seizure by minimal clonic seizure test; assay type: functional
[28] = tested on: Mus musculus; test: Neurotoxicity in albino mouse assessed as minimal motor impairment at 100 mg/kg, ip after 0.25 hrs by rotorod test; assay type: toxicity, organism-based; design: dose 100 mg/kg, route intraperitoneal; settings: in vivo
[29] = tested on: Mus musculus; test: Neurotoxicity in albino mouse minimal clonic seizure model assessed as loss of righting reflex at 100 mg/kg, ip after 0.25 hrs by rotorod test; assay type: toxicity, organism-based; design: dose 100 mg/kg, route intraperitoneal; settings: in vivo
[30] = tested on: Mus musculus; test: Anticonvulsant activity in albino mouse assessed as protection against subcutaneous metrazole-induced seizures at 100 mg/kg, ip after 0.25 hrs; assay type: functional, organism-based; design: dose 100 mg/kg
[31] = tested on: Mus musculus; test: Anticonvulsant activity in albino mouse assessed as protection against subcutaneous metrazole-induced seizures at 300 mg/kg, ip after 0.5 hrs; assay type: functional, organism-based; design: dose 300 mg/kg

Row | Compound | Activity [1] | Activity [2] | Activity [3] | Activity [4] | Activity [6] | Activity [7] | Activity [8] | Activity [9] | Activity [10] | Activity [11] | Activity [12] | Activity [13] | Activity [14] | Activity [16] | Activity [18] | Activity [20] | Activity [21] | Activity [22] | Activity [23] | Activity [28] | other results
1 | Cc1ccccc1[C@H]1C(=O)NC(=O)[C@@H]2CCCN12 | Non-toxic | Non-toxic | Non-toxic | Non-toxic | inactive | inactive | Active | Active | Active | inactive | Non-toxic | Non-toxic | Non-toxic | inactive | inactive | inactive | inactive | inactive | inactive | – | Activity [5]: Non-toxic; Activity [15]: Toxic; Activity [17]: inactive; Activity [19]: Toxic
2 | O=C1NC(=O)C(c2ccccc2)(c2ccccc2)N1 [PHENYTOIN] | – | – | – | – | – | – | – | – | – | – | – | – | – | – | – | – | – | – | – | – | ED50 [24]: > 60 mg/kg
3 | Cc1ccc([C@H]2C(=O)NC(=O)[C@@H]3CCCN23)cc1 | – | – | – | – | inactive | inactive | Active | Active | Active | inactive | Non-toxic | Non-toxic | Non-toxic | inactive | inactive | inactive | inactive | inactive | inactive | Non-toxic | ED50 [24]: 41.7 mg/kg; TD50 [25]: 167 mg/kg; Ratio TD50/ED50 [26]: 4; Time [27]: 0.25 h
4 | O=C1NC(=O)[C@@H]2CCCN2[C@H]1c1cccc(Cl)c1 | Non-toxic | Non-toxic | Non-toxic | Toxic | inactive | inactive | Active | Active | Active | inactive | Non-toxic | Non-toxic | Non-toxic | inactive | inactive | inactive | Active | Active | Active | Toxic | Activity [5]: Toxic; Activity [29]: Toxic; Activity [17]: inactive; Activity [30]: Active
5 | Cl.O=C1NC(=O)[C@@H]2CCCN2[C@H]1c1ccccc1Cl | – | – | – | – | – | – | – | – | – | inactive | Non-toxic | Non-toxic | Non-toxic | inactive | inactive | inactive | inactive | inactive | inactive | Non-toxic | Activity [31]: Active
